Test results reported in US10487068B2, “Pyridazine derivatives as RORc modulators” (Genentech, Inc., priority 2015, dated 2019).

Biological target: T1, RORc ligand binding domain (Homo sapiens, UniProt P51449)
T1 sequence (P51449 269-508 limits assumed): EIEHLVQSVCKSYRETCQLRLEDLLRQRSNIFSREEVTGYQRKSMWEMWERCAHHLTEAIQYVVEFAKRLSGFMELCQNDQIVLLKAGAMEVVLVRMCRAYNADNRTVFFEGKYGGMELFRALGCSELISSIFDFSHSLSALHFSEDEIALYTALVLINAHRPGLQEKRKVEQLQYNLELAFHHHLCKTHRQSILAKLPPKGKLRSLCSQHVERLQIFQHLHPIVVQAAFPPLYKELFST
Experiment: In Vitro RORc Ligand Binding Assay
Conditions: RORc IC50, radioligand 25-[3H]hydroxycholesterol 6 nM; 0.6 ug/mL RORc receptor; 3 h at 25° C.

**Q.** CC1(C)[C@H]2CC[C@]1(c1ccnc(-c3ccnc(CO)c3)n1)c1nnc(-c3c(F)cccc3F)cc12 [Example 412] was tested. Which IC50 did it give?
**A.** Its IC50 is 0.0071 µM.

**Q.** For CC1(C)[C@H]2CC[C@]1(c1cncc(-c3ccc(CS(C)(=O)=O)nc3)n1)c1nnc(-c3c(F)cccc3F)cc12 [Example 413], which IC50 is on record?
**A.** Its IC50 is 0.005 µM.

**Q.** How did the IC50 turn out when CC1(C)[C@H]2CC[C@]1(c1ccnc(-c3ccc(NS(C)(=O)=O)nc3)n1)c1nnc(-c3c(F)cccc3F)cc12 [Example 414, N-(5-(4-((5R,8S)-3-(2,6-difluorophenyl)-9,9-dimthyl-5,6,7,8-tetrahydro-5,8-methanocinnolin-8-yl)pyrimidin-2-yl)pyridin-2-yl)methanesulfonamide] was run?
**A.** The IC50 was 0.0098 µM.

**Q.** Which IC50 does the source give for CC(C)(O)c1cnc(-c2nccc([C@@]34CC[C@@H](c5cc(-c6c(F)cccc6F)nnc53)C4(C)C)n2)cn1 [Example 415] here?
**A.** Its IC50 is 0.022 µM.

**Q.** How did the IC50 turn out when C[C@H](O)Cn1ccc(-c2cncc([C@@]34CC[C@@H](c5cc(-c6c(F)cccc6F)nnc53)C4(C)C)n2)n1 [Example 417, (S)-1-(3-(6-((5R,8S)-3-(2,6-difluorophenyl)-9,9-dimethyl-5,6,7,8-tetrahydro-5,8-methanocinnolin-8-yl)pyrazin-2-yl)-1H-pyrazol-1-yl)propan-2-ol] was run?
**A.** The IC50 was 0.0056 µM.

**Q.** With C[C@@H](O)C(=O)Nc1ccc(-c2nccc([C@@]34CC[C@@H](c5cc(-c6c(F)cccc6F)nnc53)C4(C)C)n2)cn1 [Example 418] as the compound, how does the IC50 read?
**A.** The IC50 was 0.0105 µM.

**Q.** With CC1(C)[C@H]2CC[C@]1(c1cncc(-c3ccc(N)nc3)n1)c1nnc(-c3c(F)cccc3F)cc12 [Example 419, 5-(6-((5R,8S)-3-(2,6-difluorophenyl)-9,9-dimethyl-5,6,7,8-tetrahydro-5,8-methanocinnolin-8-yl)pyrazin-2-yl)pyridin-2-amine] as the compound, how does the IC50 read?
**A.** The IC50 was 0.0101 µM.

**Q.** Which IC50 does the source give for CC1(C)[C@H]2CC[C@]1(c1cncc(-c3ccc(OCCO)nc3)n1)c1nnc(-c3c(F)cccc3F)cc12 [Example 420, 2-((5-(6-((5R,8S)-3-(2,6-difluorophenyl)-9,9-dimethyl-5,6,7,8-tetrahydro-5,8-methanocinnolin-8-yl)pyrazin-2-yl)pyridin-2-yl)oxy)ethanol] here?
**A.** The IC50 was 0.0092 µM.

**Q.** How did the IC50 turn out when CC1(C)[C@H]2CC[C@]1(c1cncc(-n3ccncc3=O)n1)c1nnc(-c3c(F)cccc3F)cc12 [Example 421, 6′-((5R,8S)-3-(2,6-difluorophenyl)-9,9-dimethyl-5,6,7,8-tetrahydro-5,8-methanocinnolin-8-yl)-2H-[1,2′-bipyrazin]-2-one] was run?
**A.** The IC50 was 0.0395 µM.

**Q.** For CC1(C)[C@H]2CC[C@]1(c1cncc(Oc3cnccn3)n1)c1nnc(-c3c(F)cccc3F)cc12 [Example 422], which IC50 is on record?
**A.** The IC50 was 0.016 µM.

**Q.** Which IC50 does the source give for C[C@H](O)Cn1ccc(-c2cncc([C@@]34CC[C@@H](c5cc(-c6c(F)cccc6F)nnc53)C4(C)C)n2)n1 [Example 423, (S)-1-(3-(6-((5R,8S)-3-(2,6-difluorophenyl)-9,9-dimethyl-5,6,7,8-tetrahydro-5,8-methanocinnolin-8-yl)pyrazin-2-yl)-1H-pyrazol-1-yl)propan-2-ol] here?
**A.** Its IC50 is 0.0096 µM.

**Q.** Which IC50 does the source give for CC1(C)[C@H]2CC[C@]1(c1cncc(-c3ccn(CCC#N)n3)n1)c1nnc(-c3c(F)cccc3F)cc12 [Example 424, 3-(3-(6-((5R,8S)-3-(2,6-difluorophenyl)-9,9-dimethyl-5,6,7,8-tetrahydro-5,8-methanocinnolin-8-yl)pyrazin-2-yl)-1H-pyrazol-1-yl)propanenitrile] here?
**A.** Its IC50 is 0.0109 µM.

**Q.** CNS(=O)(=O)c1cncc([C@@]23CC[C@@H](c4cc(-c5c(F)cccc5F)nnc42)C3(C)C)n1 [Example 425, 6-((5R,8S)-3-(2,6-difluorophenyl)-9,9-dimethyl-5,6,7,8-tetrahydro-5,8-methanocinnolin-8-yl)-N-methylpyrazine-2-sulfonamide] was tested. Which IC50 did it give?
**A.** The IC50 was 0.0114 µM.

**Q.** How did the IC50 turn out when CC(C)(O)c1nc(-c2cncc([C@@]34CC[C@@H](c5cc(-c6c(F)cccc6F)nnc53)C4(C)C)n2)oc1Br [Example 426, 2-(5-bromo-2-(6-((5R,8S)-3-(2,6-difluorophenyl)-9,9-dimethyl-5,6,7,8-tetrahydro-5,8-methanocinnolin-8-yl)pyrazin-2-yl)oxazol-4-yl)propan-2-ol] was run?
**A.** The IC50 was 0.0121 µM.

**Q.** CC1(C)[C@H]2CC[C@]1(c1cncc(-c3nc([C@@](C)(O)C(F)(F)F)co3)n1)c1nnc(-c3c(F)cccc3F)cc12 [Example 427, (R)-2-(2-(6-((5R,8S)-3-(2,6-difluorophenyl)-9,9-dimethyl-5,6,7,8-tetrahydro-5,8-methanocinnolin-8-yl)pyrazin-2-yl)oxazol-4-yl)-1,1,1-trifluoropropan-2-ol] was tested. Which IC50 did it give?
**A.** The IC50 was 0.0159 µM.

**Q.** Which IC50 does the source give for CC1(C)[C@H]2CC[C@]1(c1cncc(-c3nc([C@](C)(O)C(F)(F)F)co3)n1)c1nnc(-c3c(F)cccc3F)cc12 [Example 428, (S)-2-(2-(6-((5R,8S)-3-(2,6-difluorophenyl)-9,9-dimethyl-5,6,7,8-tetrahydro-5,8-methanocinnolin-8-yl)pyrazin-2-yl)oxazol-4-yl)-1,1,1-trifluoropropan-2-ol] here?
**A.** Its IC50 is 0.0157 µM.

**Q.** With CC[C@](C)(O)c1coc(-c2cncc([C@@]34CC[C@@H](c5cc(-c6c(F)cccc6F)nnc53)C4(C)C)n2)n1 [Example 429, (S)-2-(2-(6-((5R,8S)-3-(2,6-difluorophenyl)-9,9-dimethyl-5,6,7,8-tetrahydro-5,8-methanocinnolin-8-yl)pyrazin-2-yl)oxazol-4-yl)butan-2-ol] as the compound, how does the IC50 read?
**A.** Its IC50 is 0.0138 µM.

**Q.** CC[C@@](C)(O)c1coc(-c2cncc([C@@]34CC[C@@H](c5cc(-c6c(F)cccc6F)nnc53)C4(C)C)n2)n1 [Example 430, (R)-2-(2-(6-((5R,8S)-3-(2,6-difluorophenyl)-9,9-dimethyl-5,6,7,8-tetrahydro-5,8-methanocinnolin-8-yl)pyrazin-2-yl)oxazol-4-yl)butan-2-ol] was tested. Which IC50 did it give?
**A.** The IC50 was 0.015 µM.

**Q.** How did the IC50 turn out when CC1(C)[C@H]2CC[C@]1(c1cncc(-c3nc(C(O)(O)C(F)(F)F)co3)n1)c1nnc(-c3c(F)cccc3F)cc12 [Example 431, 1-(2-(6-((5R,8S)-3-(2,6-difluorophenyl)-9,9-dimethyl-5,6,7,8-tetrahydro-5,8-methanocinnolin-8-yl)pyrazin-2-yl)oxazol-4-yl)-2,2,2-trifluoroethane-1,1-diol] was run?
**A.** The IC50 was 0.0213 µM.

**Q.** How did the IC50 turn out when CC(C)(O)c1nc(-c2cncc([C@@]34CC[C@@H](c5cc(-c6c(F)cccc6F)nnc53)C4(C)C)n2)oc1Cl [Example 432, 2-(5-chloro-2-(6-((5R,8S)-3-(2,6-difluorophenyl)-9,9-dimethyl-5,6,7,8-tetrahydro-5,8-methanocinnolin-8-yl)pyrazin-2-yl)oxazol-4-yl)propan-2-ol] was run?
**A.** The IC50 was 0.018 µM.

**Q.** CC(C)(O)c1nc(-c2cncc([C@@]34CC[C@@H](c5cc(-c6c(F)cccc6F)nnc53)C4(C)C)n2)oc1CO [Example 433, 2-(2-(6-((5R,8S)-3-(2,6-difluorophenyl)-9,9-dimethyl-5,6,7,8-tetrahydro-5,8-methanocinnolin-8-yl)pyrazin-2-yl)-5-(hydroxymethyl)oxazol-4-yl)propan-2-ol] was tested. Which IC50 did it give?
**A.** The IC50 was 0.0385 µM.

**Q.** CCS(=O)(=O)Cc1coc(-c2cncc([C@@]34CC[C@@H](c5cc(-c6c(F)cccc6F)nnc53)C4(C)C)n2)n1 [Example 434, 2-(6-((5R,8S)-3-(2,6-difluorophenyl)-9,9-dimethyl-5,6,7,8-tetrahydro-5,8-methanocinnolin-8-yl)pyrazin-2-yl)-4-((ethylsulfonyl)methyl)oxazole] was tested. Which IC50 did it give?
**A.** Its IC50 is 0.011 µM.

**Q.** How did the IC50 turn out when CC1(C)[C@H]2CC[C@]1(c1cncc(-c3nc(CS(=O)(=O)C4CC4)co3)n1)c1nnc(-c3c(F)cccc3F)cc12 [Example 435, 4-((cyclopropylsulfonyl)methyl)-2-(6-((5R,8S)-3-(2,6-difluorophenyl)-9,9-dimethyl-5,6,7,8-tetrahydro-5,8-methanocinnolin-8-yl)pyrazin-2-yl)oxazole] was run?
**A.** The IC50 was 0.0117 µM.

**Q.** With COC(=O)c1n[nH]c(=O)cc1[C@@]12CC[C@@H](c3cc(-c4c(F)cccc4F)nnc31)C2(C)C [Example 436] as the compound, how does the IC50 read?
**A.** The IC50 was 0.192 µM.
